Read-outs that look alike come from different tables or passages of the source.
Target: human GPR52 (Homo sapiens, UniProt Q9Y2T5)
Assay: GPR52 Agonist Functional cAMP Assay;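 note: HEKf cells transduced with GPR52 BacMam for 24 h, 2000 per well, exposed to compounds 30 min at 37° C with 0.5 mM IBMX, cAMP read by HTRF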
Conditions: for EC50: pEC50 average, HEKf cells infected with human GPR52 BacMam virus, cAMP HTRF, 30 min at 37° C.
[1] = maximal response normalised to DMSO (0%) and maximal compound 7m (J. Med. Chem., 2014, 57, 5226) response (100%)

human GPR52, sequence (Q9Y2T5 whole entry): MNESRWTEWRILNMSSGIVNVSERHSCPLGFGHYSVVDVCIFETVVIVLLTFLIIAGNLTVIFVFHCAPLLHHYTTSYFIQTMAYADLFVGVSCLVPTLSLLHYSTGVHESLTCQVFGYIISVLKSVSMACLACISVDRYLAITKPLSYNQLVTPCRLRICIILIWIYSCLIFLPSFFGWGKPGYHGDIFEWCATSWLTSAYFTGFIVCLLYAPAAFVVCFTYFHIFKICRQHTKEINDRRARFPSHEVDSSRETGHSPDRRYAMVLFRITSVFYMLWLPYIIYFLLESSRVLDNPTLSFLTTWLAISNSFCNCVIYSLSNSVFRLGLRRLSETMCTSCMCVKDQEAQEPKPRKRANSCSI
Protocol: Following BacMam infection, cells were pelleted by centrifugation (335 g, 5 min), resuspended in cell freezing medium (Sigma) and frozen at −150° C. until required. On experiment day, 25 nL GPR52 compound dilutions, prepared in DMSO, were stamped onto proxiplates (PerkinElmer) by a LabCyte ECHO acoustic dispenser. Frozen cells were thawed and resuspended in assay stimulation buffer (Cisbio) containing 0.5 mM 3-iso-butyl-1-methylxanthine (IBMX, Sigma) to achieve a density of 2000 cells per well. 10 μl cells were added to assay plates using a Multidrop Combi Reagent Dispenser (ThermoFisher) before centrifugation (335 g, 1 min). Cells were incubated with compounds at 37° C. for 30 min prior to addition of cAMP detection reagents (HiRange cAMP kit, Cisbio) which were prepared according to the manufacturer's instructions. Plates were shaken for 1 h at room temperature before reading on a PHERAstar FS plate reader (BMG Labtech) using standard HTRF settings.

Structure (SMILES)	Emax [1] [%]	EC50 [µM]	Emax [%]
Cc1nn(-c2ccnc(Cc3cccc(C(F)(F)F)c3)c2)c2c1C(=O)NCC2 [Example 78, 3-methyl-1-(2-(3-(trifluoromethyl)benzyl)pyridin-4-yl)-1,5,6,7-tetrahydro-4H-pyrazolo[4,3-c]pyridin-4-one]	94	0.02	
Cc1nn(-c2ccnc(Cc3cc(F)cc(Cl)c3)c2)c2c1C(=O)NCC2 [Example 79, 1-(2-(3-chloro-5-fluorobenzyl)pyridin-4-yl)-3-methyl-1,5,6,7-tetrahydro-4H-pyrazolo[4,3-c]pyridin-4-one]	99	0.0126	
Cc1nn(-c2ccnc(Cc3ccc(F)c(Cl)c3)c2)c2c1C(=O)NCC2 [Example 80, 1-(2-(3-chloro-4-fluorobenzyl)pyridin-4-yl)-3-methyl-1,5,6,7-tetrahydro-4H-pyrazolo[4,3-c]pyridin-4-one]	97	0.01	
Cc1nn(-c2ccnc(Cc3ccc(OC(F)F)c(F)c3)c2)c2c1C(=O)NCC2 [Example 81, 1-(2-(4-(difluoromethoxy)-3-fluorobenzyl)pyridin-4-yl)-3-methyl-1,5,6,7-tetrahydro-4H-pyrazolo[4,3-c]pyridin-4-one]	70	0.01	
Cc1cc(Cc2ccnc(-n3nc(C)c4c3CCNC4=O)c2)cnc1F [Example 83, 1-(4-((6-fluoro-5-methylpyridin-3-yl)methyl)pyridin-2-yl)-3-methyl-1,5,6,7-tetrahydro-4H-pyrazolo[4,3-c]pyridin-4-one]	93	0.0251	
Cc1nn(-c2ccnc(Cc3cc(F)c(F)c(Cl)c3)c2)c2c1C(=O)NCC2 [Example 84, 1-(2-(3-chloro-4,5-difluorobenzyl)pyridin-4-yl)-3-methyl-1,5,6,7-tetrahydro-4H-pyrazolo[4,3-c]pyridin-4-one]		0.00251	95
Cc1nn(-c2ccnc(Cc3cc(F)cc(C#N)c3)c2)c2c1C(=O)NCC2 [Example 85, 3-fluoro-5-((4-(3-methyl-4-oxo-4,5,6,7-tetrahydro-1H-pyrazolo[4,3-c]pyridin-1-yl)pyridin-2-yl)methyl)benzonitrile]	96	0.0631	
Cc1nn(-c2ccnc(Cc3cc(F)c(F)c(C(F)(F)F)c3)c2)c2c1C(=O)NCC2 [Example 86, 1-(2-(3,4-difluoro-5-(trifluoromethyl)benzyl)pyridin-4-yl)-3-methyl-1,5,6,7-tetrahydro-4H-pyrazolo[4,3-c]pyridin-4-one]	102	0.00316	
Cc1nn(-c2ccnc(Cc3cc(F)c(Cl)c(C(F)(F)F)c3)c2)c2c1C(=O)NCC2 [Example 87, 1-(2-(4-chloro-3-fluoro-5-(trifluoromethyl)benzyl)pyridin-4-yl)-3-methyl-1,5,6,7-tetrahydro-4H-pyrazolo[4,3-c]pyridin-4-one]	95	0.00631	
Cc1nn(-c2ccnc(Cc3cc(Cl)c(F)c(C(F)(F)F)c3)c2)c2c1C(=O)NCC2 [Example 88, 1-(2-(3-chloro-4-fluoro-5-(trifluoromethyl)benzyl)pyridin-4-yl)-3-methyl-1,5,6,7-tetrahydro-4H-pyrazolo[4,3-c]pyridin-4-one]	100	0.00501	
Cc1nn(-c2ccnc(Cc3cc(F)c(Cl)c(F)c3)c2)c2c1C(=O)NCC2 [Example 90, 1-(2-(4-chloro-3,5-difluorobenzyl)pyridin-4-yl)-3-methyl-1,5,6,7-tetrahydro-4H-pyrazolo[4,3-c]pyridin-4-one]	87	0.02	
COc1ccc(Cc2cc(-n3nc(C)c4c3CCNC4=O)ccn2)cn1 [Example 92, 1-(2-((6-methoxypyridin-3-yl)methyl)pyridin-4-yl)-3-methyl-1,5,6,7-tetrahydro-4H-pyrazolo[4,3-c]pyridin-4-one]	74	0.631	
COc1ncc(Cc2cc(-n3nc(C)c4c3CCNC4=O)ccn2)cc1F [Example 93, 1-(2-((5-fluoro-6-methoxypyridin-3-yl)methyl)pyridin-4-yl)-3-methyl-1,5,6,7-tetrahydro-4H-pyrazolo[4,3-c]pyridin-4-one]	83	0.1	
Cc1nn(-c2ccnc(Cc3ccc(OC(F)F)nc3)c2)c2c1C(=O)NCC2 [Example 94, 1-(2-((6-(difluoromethoxy)pyridin-3-yl)methyl)pyridin-4-yl)-3-methyl-1,5,6,7-tetrahydro-4H-pyrazolo[4,3-c]pyridin-4-one]	78	0.398	
Cc1nn(-c2cc(Cc3cc(F)cc(C(F)(F)F)c3)ccn2)c2c1C(=O)NCC2 [Example 95, 1-(4-(3-fluoro-5-(trifluoromethyl)benzyl)pyridin-2-yl)-3-methyl-1,5,6,7-tetrahydro-4H-pyrazolo[4,3-c]pyridin-4-one]	98	0.00631	
N#Cc1cc(F)cc(Cc2cc(-n3ncc4c3CCNC4=O)ccn2)c1 [Example 96, 3-fluoro-5-((4-(4-oxo-4,5,6,7-tetrahydro-1H-pyrazolo[4,3-c]pyridin-1-yl)pyridin-2-yl)methyl)benzonitrile]	94	0.794	

Structure (SMILES)	Emax [1] [%]	EC50 [µM]	Emax [%]
O=C1NCCCc2c1nnn2-c1ccnc(Cc2cc(F)cc(C(F)(F)F)c2)c1 [Example 97, 1-(2-(3-fluoro-5-(trifluoromethyl)benzyl)pyridin-4-yl)-5,6,7,8-tetrahydro-[1,2,3]triazolo[4,5-c]azepin-4(1H)-one]	90	2.51	
O=C1NCCc2nn(-c3cc(Cc4cc(F)cc(C(F)(F)F)c4)ccn3)nc21 [Example 98, 2-(4-(3-fluoro-5-(trifluoromethyl)benzyl)pyridin-2-yl)-2,5,6,7-tetrahydro-4H-[1,2,3]triazolo[4,5-c]pyridin-4-one]	92	0.158	
O=C1NCCc2c1nnn2-c1cc(Cc2cc(F)cc(C(F)(F)F)c2)ccn1 [Example 99, 1-(4-(3-fluoro-5-(trifluoromethyl)benzyl)pyridin-2-yl)-1,5,6,7-tetrahydro-4H-[1,2,3]triazolo[4,5-c]pyridin-4-one]	95	0.126	
O=C1NCCc2c1cnn2-c1cc(Cc2cc(F)cc(C(F)F)c2)ccn1 [Example 102, 1-(4-(3-(difluoromethyl)-5-fluorobenzyl)pyridin-2-yl)-1,5,6,7-tetrahydro-4H-pyrazolo[4,3-c]pyridin-4-one]	98	0.01	
O=C1NCCc2c1cnn2-c1cncc(Oc2cc(F)cc(C(F)(F)F)c2)c1 [Example 103, 1-(5-(3-fluoro-5-(trifluoromethyl)phenoxy)pyridin-3-yl)-1,5,6,7-tetrahydro-4H-pyrazolo[4,3-c]pyridin-4-one]	68	1	
COCCN1CCc2c(cnn2-c2ccnc(Cc3cc(F)cc(C(F)(F)F)c3)c2)C1=O [Example 104, 1-(2-(3-fluoro-5-(trifluoromethyl)benzyl)pyridin-4-yl)-5-(2-methoxyethyl)-1,5,6,7-tetrahydro-4H-pyrazolo[4,3-c]pyridin-4-one]	94	0.1	
O=C1c2cnn(-c3ccnc(Cc4cc(F)cc(C(F)(F)F)c4)c3)c2CCN1CCO [Example 105, 1-(2-(3-fluoro-5-(trifluoromethyl)benzyl)pyridin-4-yl)-5-(2-hydroxyethyl)-1,5,6,7-tetrahydro-4H-pyrazolo[4,3-c]pyridin-4-one]	97	0.0631	
COCCN1CCc2c(cnn2-c2cc(Cc3cc(F)cc(C(F)(F)F)c3)ccn2)C1=O [Example 106, 1-(4-(3-fluoro-5-(trifluoromethyl)benzyl)pyridin-2-yl)-5-(2-methoxyethyl)-1,5,6,7-tetrahydro-4H-pyrazolo[4,3-c]pyridin-4-one]	86	0.0316	
O=C1c2cnn(-c3cc(Cc4cc(F)cc(C(F)(F)F)c4)ccn3)c2CCN1CCO [Example 107, 1-(4-(3-fluoro-5-(trifluoromethyl)benzyl)pyridin-2-yl)-5-(2-hydroxyethyl)-1,5,6,7-tetrahydro-4H-pyrazolo[4,3-c]pyridin-4-one]	99	0.0126	
Cc1cnc(Cc2cc(F)cc(C(F)(F)F)c2)cc1-n1ncc2c1CCNC2=O [Example 108, 1-(2-(3-fluoro-5-(trifluoromethyl)benzyl)-5-methylpyridin-4-yl)-1,5,6,7-tetrahydro-4H-pyrazolo[4,3-c]pyridin-4-one]	80	0.0794	
O=C1NCCc2c1cnn2-c1ccnc(Cc2cnc(OC(F)F)c(F)c2)c1 [Example 110, 1-(2-((6-(difluoromethoxy)-5-fluoropyridin-3-yl)methyl)pyridin-4-yl)-1,5,6,7-tetrahydro-4H-pyrazolo[4,3-c]pyridin-4-one]	74	0.501	
Cc1nn(-c2ccnc(Cc3cnc(OC(F)F)c(F)c3)c2)c2c1C(=O)NCC2 [Example 111, 1-(2-((6-(difluoromethoxy)-5-fluoropyridin-3-yl)methyl)pyridin-4-yl)-3-methyl-1,5,6,7-tetrahydro-4H-pyrazolo[4,3-c]pyridin-4-one]	87	0.0631	
O=C1NCCOc2nn(-c3ccnc(Cc4cc(F)cc(C(F)(F)F)c4)c3)cc21 [Example 112, 2-(2-(3-fluoro-5-(trifluoromethyl)benzyl)pyridin-4-yl)-6,7-dihydro-2H-pyrazolo[4,3-f][1,4]oxazepin-4(5H)-one]	77	0.398	
O=C1NCCc2c1c(CO)nn2-c1cc(Cc2cc(F)cc(C(F)(F)F)c2)ccn1 [Example 113, 1-(4-(3-fluoro-5-(trifluoromethyl)benzyl)pyridin-2-yl)-3-(hydroxymethyl)-1,5,6,7-tetrahydro-4H-pyrazolo[4,3-c]pyridin-4-one]	95	0.0158	
O=C1NCCc2c1c(CO)nn2-c1ccnc(Cc2cc(F)cc(C(F)(F)F)c2)c1 [Example 114, 1-(2-(3-fluoro-5-(trifluoromethyl)benzyl)pyridin-4-yl)-3-(hydroxymethyl)-1,5,6,7-tetrahydro-4H-pyrazolo[4,3-c]pyridin-4-one]	93	0.0398	

Reference: patent publication US20230002374A1, “GPR52 MODULATOR COMPOUNDS” (Heptares Therapeutics Limited, priority 2019, published 2023)
